Test results: patent publication US20260258032A1, “TYROSINE KINASE 2 INHIBITORS AND USES THEREOF” (BIOGEN MA INC., priority 2022, published 2026)
Where a name gives a salt, the structure may show the parent alone.

Experiments:
JH2 domain of human Tyk2 = molecular target: T1, JH2 domain of human Tyk2 (Homo sapiens, UniProt P29597); test: JH2 biochemical assay (TR-FRET probe displacement); type: binding; settings: JH2 biochemical assay
T1 construct: 10×His-tagged TYK2 JH2 domain (amino acid 575-876)
In short: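 10×His-tagged human TYK2 JH2 (aa 575-876, 2 nM) incubated 60 min with 2 nM fluorescent probe, 0.1 nM Tb anti-His antibody and compound (10-point 3-fold series from […] top). TR-FRET 520/495 nm ratio, falling with probe displacement, normalized and fitted to a 4-parameter logistic for IC50.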

[1] = test system: Tyk2 kinase activity on STAT4; test: pSTAT4 cell assay (MSD, NK92 cells); type: cell-based; settings: compounds 1 hr, stimulated 15 minutes
In short: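 Serum-starved NK92 cells, which natively express Tyk2 and STAT4, were pretreated for 1 h with a 10-point 4-fold dilution series from 10 μM. They were then stimulated with 30 ng/mL IL2 for 15 min. Phospho-STAT in lysates was quantified by MSD with anti-STAT4 antibodies, and IC50 was obtained from 4-parameter logistic fits.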

T1 sequence (P29597 575-876): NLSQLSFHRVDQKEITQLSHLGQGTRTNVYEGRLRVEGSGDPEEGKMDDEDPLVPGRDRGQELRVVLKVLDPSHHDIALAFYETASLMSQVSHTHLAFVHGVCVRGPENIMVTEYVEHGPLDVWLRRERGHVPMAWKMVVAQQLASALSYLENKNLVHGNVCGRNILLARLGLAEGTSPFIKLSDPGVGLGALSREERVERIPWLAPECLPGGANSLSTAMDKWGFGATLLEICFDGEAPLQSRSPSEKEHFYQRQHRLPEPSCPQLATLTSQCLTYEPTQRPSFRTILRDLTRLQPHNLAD

SMILES | IC50 (JH2 domain of human Tyk2) | IC50 [1]
CC(=O)Nc1cc2c(cn1)C1(CC1)CN2c1cc(C)cc(N2CC(O)C(O)C2)n1 (stereo not shown) [Example 187, N-(1′-(6-(3,4-dihydroxypyrrolidin-1-yl)-4-methylpyridin-2-yl)-1′,2′-dihydrospiro[cyclopropane-1,3′-pyrrolo[3,2-c]pyridin]-6′-yl)acetamide] | 100 to 1000 nM | ≥ 1000 nM
COC1CCCN(c2cc(C)cc(N3CC4(CC4)c4cnc(NC(C)=O)cc43)n2)C1 (stereo not shown) [Example 188, N-(1′-(6-(3-methoxypiperidin-1-yl)-4-methylpyridin-2-yl)-1′,2′-dihydrospiro[cyclopropane-1,3′-pyrrolo[3,2-c]pyridin]-6′-yl)acetamide] | 100 to 1000 nM | ≥ 1000 nM
CC(=O)Nc1cc2c(cn1)C1(CC1)CN2c1cc(C)cc(N2CCC(O)C2)n1 (stereo not shown) [Example 189, N-(1′-(6-(3-hydroxypyrrolidin-1-yl)-4-methylpyridin-2-yl)-1′,2′-dihydrospiro[cyclopropane-1,3′-pyrrolo[3,2-c]pyridin]-6′-yl)acetamide] | 10 to 100 nM | ≥ 1000 nM
CC(=O)Nc1cc2c(cn1)C1(CC1)CN2c1cc(C)cc(N(C)C)n1 [Example 190, N-(1′-(6-(dimethylamino)-4-methylpyridin-2-yl)-1′,2′-dihydrospiro[cyclopropane-1,3′-pyrrolo[3,2-c]pyridin]-6′-yl)acetamide] | 10 to 100 nM | ≥ 1000 nM
COCCNc1cc(C)cc(N2CC3(CC3)c3cnc(NC(C)=O)cc32)n1 [Example 191, N-(1′-(6-((2-methoxyethyl)amino)-4-methylpyridin-2-yl)-1′,2′-dihydrospiro[cyclopropane-1,3′-pyrrolo[3,2-c]pyridin]-6′-yl)acetamide] | 100 to 1000 nM | ≥ 1000 nM
CC(=O)Nc1cc2c(cn1)C1(CC1)CN2c1cc(C)cc(N2CCC(N(C)C)C2)n1 (stereo not shown) [Example 192, N-(1′-(6-(3-(dimethylamino)pyrrolidin-1-yl)-4-methylpyridin-2-yl)-1′,2′-dihydrospiro[cyclopropane-1,3′-pyrrolo[3,2-c]pyridin]-6′-yl)acetamide trifluoroacetate] | 100 to 1000 nM | ≥ 1000 nM
CC(=O)Nc1cc2c(cn1)C1(CC1)CN2c1cc(C)cc(N2CC(O)C2)n1 [Example 193, N-(1′-(6-(3-hydroxyazetidin-1-yl)-4-methylpyridin-2-yl)-1′,2′-dihydrospiro[cyclopropane-1,3′-pyrrolo[3,2-c]pyridin]-6′-yl)acetamide] | 10 to 100 nM | ≥ 1000 nM
CC(=O)Nc1cc2c(cn1)C1(CC1)CN2c1cc(C)cc(N2CC(C#N)C2)n1 [Example 194, N-(1′-(6-(3-cyanoazetidin-1-yl)-4-methylpyridin-2-yl)-1′,2′-dihydrospiro[cyclopropane-1,3′-pyrrolo[3,2-c]pyridin]-6′-yl)acetamide] | ≤ 10 nM | ≥ 1000 nM
CC(=O)Nc1cc2c(cn1)C1(CC1)CN2c1cc(C)cc(N2CC(F)C2)n1 [Example 195, N-(1′-(6-(3-fluoroazetidin-1-yl)-4-methylpyridin-2-yl)-1′,2′-dihydrospiro[cyclopropane-1,3′-pyrrolo[3,2-c]pyridin]-6′-yl)acetamide] | 10 to 100 nM | ≥ 1000 nM
CC(=O)Nc1cc2c(cn1)C1(CC1)CN2c1cc(C)cc(N2CC(C#N)(CF)C2)n1 [Example 196, N-(1′-(6-(3-cyano-3-(fluoromethyl)azetidin-1-yl)-4-methylpyridin-2-yl)-1′,2′-dihydrospiro[cyclopropane-1,3′-pyrrolo[3,2-c]pyridin]-6′-yl)acetamide] | 10 to 100 nM | 100 to 1000 nM
CCC1(C#N)CN(c2cc(C)cc(N3CC4(CC4)c4cnc(NC(C)=O)cc43)n2)C1 [Example 197, N-(1′-(6-(3-cyano-3-ethylazetidin-1-yl)-4-methylpyridin-2-yl)-1′,2′-dihydrospiro[cyclopropane-1,3′-pyrrolo[3,2-c]pyridin]-6′-yl)acetamide] | 10 to 100 nM | ≥ 1000 nM
CC(=O)Nc1cc2c(cn1)C1(CC1)CN2c1cc(C)cc(N2CC(OC(F)F)C2)n1 [Example 198, N-(1′-(6-(3-(difluoromethoxy)azetidin-1-yl)-4-methylpyridin-2-yl)-1′,2′-dihydrospiro[cyclopropane-1,3′-pyrrolo[3,2-c]pyridin]-6′-yl)acetamide] | 100 to 1000 nM | ≥ 1000 nM
COCCC1(C#N)CN(c2cc(C)cc(N3CC4(CC4)c4cnc(NC(C)=O)cc43)n2)C1 [Example 199, N-(1′-(6-(3-cyano-3-(2-methoxyethyl)azetidin-1-yl)-4-methylpyridin-2-yl)-1′,2′-dihydrospiro[cyclopropane-1,3′-pyrrolo[3,2-c]pyridin]-6′-yl)acetamide] | 10 to 100 nM | ≥ 1000 nM
CC(=O)Nc1cc2c(cn1)C1(CC1)CN2c1cc(C)cc(N2CC(C)(C#N)C2)n1 [Example 200, N-(1′-(6-(3-cyano-3-methylazetidin-1-yl)-4-methylpyridin-2-yl)-1′,2′-dihydrospiro[cyclopropane-1,3′-pyrrolo[3,2-c]pyridin]-6′-yl)acetamide] | 10 to 100 nM | 100 to 1000 nM
CC(=O)Nc1cc2c(cn1)C1(CC1)CN2c1cc(C)cc(N2CC(C(F)F)C2)n1 [Example 201, N-(1′-(6-(3-(difluoromethyl)azetidin-1-yl)-4-methylpyridin-2-yl)-1′,2′-dihydrospiro[cyclopropane-1,3′-pyrrolo[3,2-c]pyridin]-6′-yl)acetamide trifluoroacetate] | 10 to 100 nM | ≥ 1000 nM
CC(=O)Nc1cc2c(cn1)C1(CC1)CN2c1cc(C)cc(N2CC(C#N)(C(F)F)C2)n1 [Example 202, N-(1′-(6-(3-cyano-3-(difluoromethyl)azetidin-1-yl)-4-methylpyridin-2-yl)-1′,2′-dihydrospiro[cyclopropane-1,3′-pyrrolo[3,2-c]pyridin]-6′-yl)acetamide] | 10 to 100 nM | ≥ 1000 nM
CC(=O)Nc1cc2c(cn1)C1(CC1)CN2c1cc(C)cc(N2CC(S(C)(=O)=O)C2)n1 [Example 203, N-(1′-(4-methyl-6-(3-(methylsulfonyl)azetidin-1-yl)pyridin-2-yl)-1′,2′-dihydrospiro[cyclopropane-1,3′-pyrrolo[3,2-c]pyridin]-6′-yl)acetamide] | 100 to 1000 nM | ≥ 1000 nM
CCS(=O)(=O)C1CN(c2cc(C)cc(N3CC4(CC4)c4cnc(NC(C)=O)cc43)n2)C1 [Example 204, N-(1′-(6-(3-(ethylsulfonyl)azetidin-1-yl)-4-methylpyridin-2-yl)-1′,2′-dihydrospiro[cyclopropane-1,3′-pyrrolo[3,2-c]pyridin]-6′-yl)acetamide] | 100 to 1000 nM | ≥ 1000 nM
CC(=O)Nc1cc2c(cn1)C1(CC1)CN2c1cc(C)cc(N2CC(C)(O)C2)n1 [Example 205, N-(1′-(6-(3-hydroxy-3-methylazetidin-1-yl)-4-methylpyridin-2-yl)-1′,2′-dihydrospiro[cyclopropane-1,3′-pyrrolo[3,2-c]pyridin]-6′-yl)acetamide] | 10 to 100 nM | ≥ 1000 nM
CC(=O)Nc1cc2c(cn1)C1(CC1)CN2c1cc(C)cc(N2CCOCC2)n1 [Example 206, N-(1′-(4-methyl-6-morpholinopyridin-2-yl)-1′,2′-dihydrospiro[cyclopropane-1,3′-pyrrolo[3,2-c]pyridin]-6′-yl)acetamide] | 10 to 100 nM | 100 to 1000 nM
CC(=O)Nc1cc2c(cn1)C1(CC1)CN2c1cc(C)cc(N2CCN(C)CC2)n1 [Example 207, N-(1′-(4-methyl-6-(4-methylpiperazin-1-yl)pyridin-2-yl)-1′,2′-dihydrospiro[cyclopropane-1,3′-pyrrolo[3,2-c]pyridin]-6′-yl)acetamide] | 100 to 1000 nM | ≥ 1000 nM
CC(=O)Nc1cc2c(cn1)C1(CC1)CN2c1cc(C)cc(N2CCC3(CC2)COC3)n1 [Example 208, N-(1′-(4-methyl-6-(2-oxa-7-azaspiro[3.5]nonan-7-yl)pyridin-2-yl)-1′,2′-dihydrospiro[cyclopropane-1,3′-pyrrolo[3,2-c]pyridin]-6′-yl)acetamide] | 100 to 1000 nM | ≥ 1000 nM
CC(=O)Nc1cc2c(cn1)C1(CC1)CN2c1cc(C)cc(N2C[C@H]3CNC[C@H]3C2)n1 [Example 209, N-(1′-(6-((3aR,6aS)-hexahydropyrrolo[3,4-c]pyrrol-2(1H)-yl)-4-methylpyridin-2-yl)-1′,2′-dihydrospiro[cyclopropane-1,3′-pyrrolo[3,2-c]pyridin]-6′-yl)acetamide trifluoroacetate] | 100 to 1000 nM | ≥ 1000 nM
CC(=O)Nc1cc2c(cn1)C1(CC1)CN2c1cc(C)cc(N2CC3CCNC3C2)n1 (stereo not shown) [Example 210, N-(1′-(6-(hexahydropyrrolo[3,4-b]pyrrol-5(1H)-yl)-4-methylpyridin-2-yl)-1′,2′-dihydrospiro[cyclopropane-1,3′-pyrrolo[3,2-c]pyridin]-6′-yl)acetamide trifluoroacetate] | 100 to 1000 nM | ≥ 1000 nM
CC(=O)Nc1cc2c(cn1)C1(CC1)CN2c1cc(C)cc(N2CCNCC2)n1 [Example 211, N-(1′-(4-methyl-6-(piperazin-1-yl)pyridin-2-yl)-1′,2′-dihydrospiro[cyclopropane-1,3′-pyrrolo[3,2-c]pyridin]-6′-yl)acetamide trifluoroacetate] | ≤ 10 nM | ≥ 1000 nM
CC(=O)Nc1cc2c(cn1)C1(CC1)CN2c1cc(C)cc(N2CCNC(CCO)C2)n1 (stereo not shown) [Example 212, N-(1′-(6-(3-(2-hydroxyethyl)piperazin-1-yl)-4-methylpyridin-2-yl)-1′,2′-dihydrospiro[cyclopropane-1,3′-pyrrolo[3,2-c]pyridin]-6′-yl)acetamide trifluoroacetate] | 100 to 1000 nM | ≥ 1000 nM
